From ChEMBL document CHEMBL5625173, “Antimycobacterial pyridine carboxamides: From design to in vivo activity” (Eur J Med Chem, 2023)
Values after ≈ are worked out from the molar mass of the structure shown.

How the values were obtained:
Format in all cases: functional
[1] = tested on: Mycobacterium tuberculosis; assay: Antimycobacterial activity against Mycobacterium tuberculosis H37Rv overexpressing folP1 by alamar blue staining based microplate analysis
[2] = tested on: Mycobacterium tuberculosis; assay: Antimycobacterial activity against Mycobacterium tuberculosis H37Rv overexpressing folC by alamar blue staining based microplate analysis
[3] = tested on: Mycobacterium tuberculosis; assay: Antimycobacterial activity against Mycobacterium tuberculosis H37Rv overexpressing dfrA by alamar blue staining based microplate analysis
[4] = tested on: Mycobacterium tuberculosis; assay: Antimycobacterial activity against Mycobacterium tuberculosis H37Rv overexpressing ribD by alamar blue staining based microplate analysis

Row | Compound | MIC [1] | MIC [2] | MIC [3] | MIC [4]
1 | O=C(Nc1ccc(C(=O)O)c(O)c1)c1ccc2ccccc2n1 | 8 µg/mL (≈ 25.9 µM) | 8 µg/mL (≈ 25.9 µM) | 8 µg/mL (≈ 25.9 µM) | 8 µg/mL (≈ 25.9 µM)
2 | O=C(Nc1ccc(C(=O)[O-])c(O)c1)c1ccc2ccccc2n1.[Na+] | 8 µg/mL | 8 µg/mL | 8 µg/mL | 8 µg/mL
3 | Nc1ccc(C(=O)O)c(O)c1 [AMINOSALICYLIC ACID] | 0.02 µg/mL (≈ 0.131 µM) | 0.02 µg/mL (≈ 0.131 µM) | > 5 µg/mL | 2.5 µg/mL (≈ 16.3 µM)
